Patent US11253589B2, “Modulation of the immune response” (priority 2007, dated 2022)
Entries after “also recorded” stand apart in the source; their conditions may differ.

Legend:
C57BL/6 mice [1] = assay: EAE induced by immunization with MOG35-55 in CFA; assay type: in vivo, mouse; parameters: EAE severity: dose or concentration left out as unconfirmed
C57BL/6 mice [2] = assay: EAE in recipient mice after transfer of CD4+ T cells from treated mice; assay type: in vivo, mouse
Excerpt: To identify the mechanism responsible for the decreased proliferation to MOG35-55 in TCDD-treated animals shown in FIG. 4D, the CD4^+CD25^+ Treg population was depleted with magnetic beads. […] The control of the pathogenic T cell response was mediated by CD4^+CD25^+ Treg, their depletion abrogated the protective effect of the transferred cells (P<0.001, two-way ANOVA, n=4; FIG. 5C).
To confirm that the protective effect of TCDD on EAE was Treg mediated we depleted the natural Treg with antibodies to CD25 prior to TCDD treatment. […] This protective effect was lost when CD4^+CD25^+ T cells were depleted, see FIG. 5h and Table 5.
The control of the pathogenic T cell response was mediated by CD4^+CD25^+ Treg, their depletion from the transferred population abrogated the protective effect of the transferred cells. Thus, the Treg induced by the activation of AHR with ITE inhibit the progression of EAE.

myelin specific T cells = assay: Recall response (proliferation, cytokine secretion) to MOG35-55 or anti-CD3 of cells from treated mice; assay type: in vivo, mouse
Description: Cells were cultured in serum-free X-VIVO 20™ media (BioWhittaker, Walkersville, Md., USA) for 72 hours. During the last 16 hours, cells were pulsed with 1 μCi of [^3H]thymidine (PerkinElmer, Waltham, Mass., USA) followed by harvesting on glass fiber filters and analysis of incorporated [^3H]thymidine in a beta-counter (1450 Microbeta, Trilux, PerkinElmer). Alternatively, culture supernatants were collected […] activation and the cytokine concentration was determined by ELISA using antibodies for IFN-γ, IL-17, IL-4, IL-10 from BD Biosciences and antibodies to TGF-β from R&D Systems. For suppression assays, MACS purified CD4^+CD25^− T cells from naïve C57BL/6 mice (1-5×10^4 cells/well) were stimulated with antibodies to CD3 and C57BL/6 irradiated spleen cells (0.3-1.5×10^4 cells/well) for 3 days in the presence of different ratios of CD4^+ GFP^+ retrovirus-transduced T cells.
To further characterize the suppression of EAE by AHR activation we studied the activity of myelin specific T cells induced by vaccination with MOG35-55/CFA in TCDD-treated mice.
In addition, cells were stimulated in culture medium containing 100 μg/ml MOG35-55 for 2 days or with PMA (50 ng/ml) (Sigma-Aldrich) and ionomycin ([…]) (Calbiochem, San Diego, Calif., USA) for 4 hours, Golgistop (BD Biosciences) was added to the culture during the last 4 hours. After staining of surface markers, cells were fixed and permeabilized using Cytofix/Cytoperm and Perm/Wash buffer from BD Biosciences according to the manufacturer's instructions. All antibodies to cytokines (IFN-gamma, IL-17, IL-10) including the corresponding isotype controls were obtained from BD Biosciences. Cells were incubated (1:100) at 25° C. for 20 min and washed twice in Perm/Wash before analysis. Data were acquired on a FACSCalibur (BD Biosciences) and analyzed with FlowJo software (Tree Star, Ashland, Oreg., USA).
We then studied the effect of ITE administration on the encephalitogenic response against myelin. EAE was induced on naïve C57BL/6 mice and ITE ([…]) was administered orally or intraperitoneally on daily basis.

CD11c+ and CD11b+ cells = assay: MHC class II expression on CD11c+ and CD11b+ cells by FACS; assay type: in vivo; details: ITE 200 mg/mouse ip daily or TCDD 1 mg/mouse ip on day 0; spleens 10 days after MOG35-55/CFA
Excerpt: AHR is known to be expressed by antigen presenting cells (APC) such as dendritic cells (CD11c^+) and macrophages (CD11b^+) (Vorderstrasse and Kerkvliet, Toxicol Appl Pharmacol. 171, 117 (2001); Laupeze et al., J Immunol. 168, 2652 (2002); Hayashi et al., Carcinogenesis. 16, 1403 (1995); Komura et al., Mol Cell Biochem. 226, 107 (2001)). To analyze the effects that AHR activation by ITE might have on different APC populations, which can potentially influence the generation of Teff and Treg cells, we studied the effect of ITE and TCDD treatment on MHC class II expression by as dendritic cells (CD11c^+) and macrophages (CD11b). C57BL/6 mice were treated with ITE (200 mg/mouse administered ip, daily) or TCDD (1 mg/mouse administered ip on day 0) and immunized them with […] of MOG35-55 in CFA. Spleens were prepared 10 days later and […] expression was investigated on CD11b^+ and CD11c^+ cells by FACS.

[3] = ITE 200 μg/mouse daily, either orally or intraperitoneally
[4] = CD4+ T cells from ITE-treated mice vs control
[5] = ITE 200 mg/mice daily (FIG. 22: IP), splenocytes
[6] = C57BL/6 (WT) mice, TCDD 1 μg/mouse, Table 4
[7] = recipients of 5 × 10^6 CD4+ T cells from TCDD treated mice
[8] = recipients of 5 × 10^6 CD4+CD25- T cells from TCDD treated mice
[9] = cells purified from TCDD-treated Foxp3gfp mice
[10] = draining lymph node cells of TCDD-treated mice vs control
[11] = lymph node cells of TCDD-treated mice, 10 days after MOG35-55/CFA

Compound: COC(=O)c1csc(C(=O)c2c[nH]c3ccccc23)n1 [ITE, 2-(1′H-indole-3′-carbonyl)-thiazole-4-carboxylic acid methyl ester]
- protective effects on EAE (C57BL/6 mice [1]; ITE 200 μg/mouse at weekly intervals instead of daily): complete loss of tis protective effects on EAE; also recorded: fails to suppress EAE development
- EAE clinical score (C57BL/6 mice [1]; [3]): significant reduction of EAE clinical score
- EAE development (delay) (C57BL/6 mice [1]; [3]): significant delay on EAE development
- EAE severity (C57BL/6 mice [1]; administered on a daily basis): significant reduction on EAE severity
- protection from EAE by transfer of CD4+ T cells (C57BL/6 mice [2]; CD4+ T cells from mice treated with oral or intraperitoneal ITE): Protection from EAE could be transferred
- IFNg secretion upon activation with MOG35-55 (myelin specific T cells; [4]): lower amounts
- IL2 secretion upon activation with MOG35-55 (myelin specific T cells; [4]): lower amounts
- IL6 secretion upon activation with MOG35-55 (myelin specific T cells; [4]): lower amounts
- IL17 secretion upon activation with MOG35-55 (myelin specific T cells; [4]): lower amounts
- IL-10 secretion upon activation with MOG35-55 (myelin specific T cells; [4]): higher amounts
- TGFb1 secretion upon activation with MOG35-55 (myelin specific T cells; [4]): higher amounts
- recall response of purified CD4+ T cells (myelin specific T cells; Foxp3gfp mice, ITE 200 mg/mice intraperitoneal daily): suppressed response to MOG35-55 but not to anti-CD3
- proliferative response upon activation with antibodies to CD3 (myelin specific T cells; [5]): no differences were seen
- recall proliferative response to the MOG35-55 peptide (myelin specific T cells; [5]): suppressed recall proliferative response
- secretion of IFNg by lymph node cells activated with MOG35-55 or αCD3 (myelin specific T cells; ITE-treated mice): significant reduction in the secretion
- secretion of IL-17 by lymph node cells activated with MOG35-55 or αCD3 (myelin specific T cells; ITE-treated mice): significant reduction in the secretion
- CD11b+ MHC class II expression (CD11c+ and CD11b+ cells): significant increase
- CD11c+ MHC class II expression (CD11c+ and CD11b+ cells): significant decrease

Compound: Clc1cc2c(cc1Cl)Oc1cc(Cl)c(Cl)cc1O2 [TCDD, 2,3,7,8 tetrachlorodibenzo-p-dioxin]
- EAE development (C57BL/6 mice [1]; AHR-ligand loaded nanoparticles, 45 femtomoles weekly starting at day 0): complete suppression of EAE
- Mean day of onset (Mean ± SD) (C57BL/6 mice [1]; [6]): 21 days
- Mean maximum score (mean ± SD) (C57BL/6 mice [1]; [6]): 0.2 ± 0.6
- histopathological signs of EAE (cellular infiltrate, demyelination, axonal loss in spinal cord) (C57BL/6 mice [1]; IP administered TCDD, day 19 after EAE induction): reduced the histopathological signs of EAE; also recorded: inhibits CNS inflammation, demyelination and axonal loss
- Incidence (positive/total) (C57BL/6 mice [1]; TCDD 0.01 μg per mouse ip): 7/7
- Mean day of onset (Mean ± standard deviation (SD)) (C57BL/6 mice [1]; TCDD 0.01 μg per mouse ip): 14.1 ± 2.9 days
- Mean maximum score (mean ± SD) (C57BL/6 mice [1]; TCDD 0.01 μg per mouse ip, EAE score 0-5): 2.7 ± 0.6
- Mean day of onset (Mean ± standard deviation (SD)) (C57BL/6 mice [1]; TCDD 0.1 μg per mouse ip): 17.0 ± 1.2 days
- Mean maximum score (mean ± SD) (C57BL/6 mice [1]; TCDD 0.1 μg per mouse ip, EAE score 0-5): 3.1 ± 0.5
- Mean day of onset (Mean ± standard deviation (SD)) (C57BL/6 mice [1]; TCDD 1 μg per mouse ip, then MOG35-55/CFA): 21.8 ± 1.5 days
- Mean maximum score (mean ± SD) (C57BL/6 mice [1]; TCDD 1 μg per mouse ip, then MOG35-55/CFA, EAE score 0-5): 0.2 ± 0.6
- clinical signs of EAE (C57BL/6 mice [1]; TCDD 1 μg/mouse ip): markedly inhibited the clinical signs of EAE
- EAE development (C57BL/6 mice [1]; TCDD 1 μg/mouse orally, one day before EAE induction): prevented EAE development
- onset of EAE (C57BL/6 mice [1]; natural Treg depleted with antibodies to CD25 prior to TCDD treatment): significant delay in the onset of EAE
- Mean day of onset (Mean ± SD) (C57BL/6 mice [2]; [7]): 13.3 ± 0.6 days
- Mean maximum score (mean ± SD) (C57BL/6 mice [2]; [7]): 0.7 ± 0.8
- Mean day of onset (Mean ± SD) (C57BL/6 mice [2]; [8]): 11.0 ± 0.0 days
- Mean maximum score (mean ± SD) (C57BL/6 mice [2]; [8]): 2.6 ± 1.8
- development of EAE (C57BL/6 mice [2]; transfer of 5×10^6 CD4+ T cells from TCDD-treated mice): significantly inhibited the development of EAE
- proliferation of effector CD4+ Foxp3:GFP- T cells to MOG35-55 (myelin specific T cells; [9]): normal proliferation
- secretion of IFNγ by effector CD4+ Foxp3:GFP- T cells upon activation with MOG35-55 (myelin specific T cells; [9]): significantly decreased secretion
- secretion of IL-17 by effector CD4+ Foxp3:GFP- T cells upon activation with MOG35-55 (myelin specific T cells; [9]): significantly decreased secretion
- IFNg secretion upon activation with MOG35-55 (myelin specific T cells; [10]): lower amounts
- IL-17 secretion upon activation with MOG35-55 (myelin specific T cells; [10]): lower amounts
- TGFb1 secretion upon activation with MOG35-55 (myelin specific T cells; [10]): higher amounts
- proliferative response upon activation with antibodies to CD3 (myelin specific T cells; [11]): no differences were seen
- recall proliferative response to the MOG35-55 peptide (myelin specific T cells; [11]): suppressed recall proliferative response
- CD11b+ MHC class II expression (CD11c+ and CD11b+ cells): significant increase
- CD11c+ MHC class II expression (CD11c+ and CD11b+ cells): significant decrease
